The values that follow come from patent US10399931B2, “Octahydroanthracene compound, preparation method and application thereof” (SHANDONG XINHUA PHARMACEUTICAL CO., LTD., priority 2016, dated 2019).

The test concerns microglia. Put plainly: Phagocytosis of β-amyloid protein by microglia in APP/PS1 mice. It counts as in vivo. Here is the method:
• 4.3.1. Immersing the paraffin sections in xylene to dewax for 15 min, and 2 times in total; then immersing in gradient alcohols with a gradient of 100%, 100%, 95%, 90%, 85% and 75%, each for 5 min. • 4.3.2. Microwave antigen retrieval: immersing the sections in 0.01 M citrate buffer (pH 6.0), heating to boiling in a microwave oven, and repeating twice; after natural cooling, washing 2 times with PBS for 5 min each time. • 4.3.3. Blocking endogenous peroxidase: blotting around the brain tissue with filter paper, outlining the brain tissue with a PAP pen. Adding dropwise the peroxidase blocker, incubating for 10 min at room temperature, and washing 3 times with PBS for 5 min each time. • 4.3.4. Adding dropwise normal serum blocking solution diluted with 0.01M PBS at a ratio of 1:10, standing at room temperature for 20 min, shaking off the excess liquid and not washing. • 4.3.5. Adding dropwise the primary antibody diluted with 0.01 M PBS, keeping at 4° C. overnight; washing 3 times with 0.01 M PBS for 2 min each time. • 4.3.6. […] Sealing with water-soluble sealant; observing by fluorescence microscopy. […] Washing 3 times with the PBS on a shaker in a dark for 3 min each time; sealing with the water-soluble sealant, and observing by fluorescence microscope. […]

As for `CC1(C)CCC(C)(C)c2c1cc1c(c2NC(=O)c2ccc(NC(=O)NCCN)cc2)C(C)(C)CCC1(C)C` [OAB-14, 1-(2-amino) ethyl-3-{4-[(1,1,4,4,5,5,8,8-octamethyl-1,2,3,4,5,6,7,8-octahydro-9-anthryl)carbamoyl]phenyl} urea], the “Phagocytosis of microglia in the central nervous system to β-amyloid protein” value is given as “promoting the phagocytosis”.
